The assay relates to fecal coliform. The experiment in a line: Fecal coliform count of wastewater at the contact chamber exit after peracetic acid dosing. The format is cell-based. The settings on record: post-sand filter wastewater, 60 min average contact time. As for the experimental part:
Wastewater was diverted post-sand filter treatment at a wastewater treatment plant into a rectangular weir disinfectant contact chamber. The flow rate of wastewater through the contact chamber was set at seven gallons per minute; the average contact time in the contact chamber was 60 minutes.
VigorOx® WWT peracetic acid (FMC Corporation; 15% peracetic acid, 23% hydrogen peroxide by weight) was dosed into the wastewater through Control Corporation lab grade pumps. In Comparative Experiment A, the PAA was introduced just prior to the wastewater's entrance into the contact chamber at a rate of 6.1 ppm. In Example 1, PAA was introduced just prior to the wastewater's entrance into the contact chamber at a rate of 1.5 ppm; and additionally at a point 50 minutes after the wastewater's entry into the contact chamber at a rate of 4.5 ppm. The fecal coliform count of the wastewater was measured at the point the wastewater exited from the contact chamber.

Take `CC(=O)OO` [PAA, peracetic acid]: the “samples tested with no-detectable readings of coliform bacteria” value by setting is: (Comparative Experiment A: PAA added at a sole point just prior to entrance into contact chamber, 6.1 ppm) “about 35%”; (Example 1: PAA added at two points, 1.5 ppm just prior to entrance and 4.5 ppm at 50 minutes after entry) “about 50%”.

The record behind these values is US20150005379A1, “[…] METHOD” (PeroxyChem LLC, priority 2013, published 2015).
